Patent publication US5208344A, “Naphthalenepropionic acid derivatives as anti-inflammatory/antiallergic agents” (American Home Products Corporation, priority 1991, dated 1993)
pIC50: −log10 of the molar value. Counter-ions that a name gives are not always drawn.

Assays:
Format in all cases: cell-based
5-lipoxygenase [1] = target: T1, 5-lipoxygenase (Rattus norvegicus, UniProt P12527); assay: inhibition of 5-HETE synthesis by rat glycogen elicited polymorphonuclear leukocytes; settings: rat PMN; for inhibition at 10 µM: negative = potentiation of 5-HETE synthesis
T1 construct: Peritoneal PMN are obtained from female Wistar rats (150-250 g); endogenous in cells; host or cells: rat glycogen-elicited peritoneal polymorphonuclear leukocytes, intact
T1 sequence (P12527 1-673): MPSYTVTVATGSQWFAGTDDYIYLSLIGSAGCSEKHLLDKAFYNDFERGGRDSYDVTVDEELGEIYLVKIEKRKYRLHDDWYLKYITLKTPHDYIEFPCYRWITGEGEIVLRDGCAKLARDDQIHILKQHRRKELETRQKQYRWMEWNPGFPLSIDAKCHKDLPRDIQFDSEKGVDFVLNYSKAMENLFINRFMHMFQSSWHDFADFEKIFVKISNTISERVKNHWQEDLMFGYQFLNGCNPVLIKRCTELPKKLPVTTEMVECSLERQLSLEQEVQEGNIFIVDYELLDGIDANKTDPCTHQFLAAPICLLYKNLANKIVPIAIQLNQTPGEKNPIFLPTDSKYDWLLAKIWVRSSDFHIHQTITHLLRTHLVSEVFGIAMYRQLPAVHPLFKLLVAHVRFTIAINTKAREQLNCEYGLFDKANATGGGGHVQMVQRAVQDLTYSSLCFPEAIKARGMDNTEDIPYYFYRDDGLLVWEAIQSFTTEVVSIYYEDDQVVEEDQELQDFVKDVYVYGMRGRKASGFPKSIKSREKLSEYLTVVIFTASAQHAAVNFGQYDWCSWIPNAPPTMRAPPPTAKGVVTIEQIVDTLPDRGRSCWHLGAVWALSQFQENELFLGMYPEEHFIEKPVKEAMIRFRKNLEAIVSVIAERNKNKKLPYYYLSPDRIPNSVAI
Method: The assay of this Example measures the ability of the compounds of the invention to inhibit the synthesis of 5-HETE by rat glycogen elicited polymorphonuclear leukocytes.
(§1) Peritoneal PMN are obtained from female Wistar rats (150-250 g) that received an i.p. injection of 6% glycogen (10 ml). After 24 hours, rats are killed by CO2 asphysiation and peritoneal cells are harvested by peritoneal lavage using Ca^++ and MG^++ free Hanks' balanced salt solution (HBSS). The peritoneal exudate is centrifuged at 400 g for 10 minutes. After centrifugation, the lavaged fluid is removed and the cell pellet is resuspended in HBSS containing Ca^++ and MG^++ and 10 mM L-cysteine at a concentration of 2×10^7 cells/ml. To 1 ml portions of cell suspension, test drugs or vehicle are added and incubated at 37° C. for 10 minutes. Following this preincubation, the calcium ionophore (10 μM), a23187, is added together with 0.5 μM [14 C] arachidonic acid and further incubated for 10 minutes. The reaction is stopped by the addition of ice cold water (3 ml) and acidifying to pH 3.5. Lipoxygenase products are then extracted twice into diethyl ether. The pooled ether extracts are evaporated to dryness under nitrogen and the residue is redissolved in a small volume of methanol and spotted on aluminum backed pre-coated thin layer chromatographic plates. The samples are then cochromatographed with authentic reference 5-HETE in the solvent system - hexane: ether: acetic acid (50:50:3). After chromatography, the areas associated with 5-HETE standard are identified by autoradiography, cut out and quantitated by liquid scintillation.

cyclooxygenase = assay: inhibition of synthesis of cyclooxygenase products TxB2 and PGE2 (rat polymorphonuclear leukocytes); settings: rat PMN; for % Inhibition of CO (as PGE2): negative = potentiation of PGE2 synthesis; for pIC50: read-out: IC50 (inhibition of CO, as PGE2)
Method: as §1
However, in order to determine cyclooxygenase activity, the samples are cochromatographed with authentic reference TxB2 and PGE2 in the solvent system ethyl acetate: formic acid (80:1) and the upper phase of ethyl acetate: isooctane: acetic acid: water (110:50:20:100). After chromatography, the areas associated with the TxB2 and PGE2 standards are identified by autoradiography, cut out and quantitated by liquid scintillation techniques.

5-lipoxygenase [2] = target: T2, 5-lipoxygenase (Homo sapiens, UniProt P09917); assay: inhibition of 5-lipoxygenase in human whole blood (LTB4)
T2 construct: Blood is obtained in 50-100 ml quantities from male donors; endogenous in cells; host or cells: human whole blood (leukocytes) from male donors
T2 sequence (P09917 1-674): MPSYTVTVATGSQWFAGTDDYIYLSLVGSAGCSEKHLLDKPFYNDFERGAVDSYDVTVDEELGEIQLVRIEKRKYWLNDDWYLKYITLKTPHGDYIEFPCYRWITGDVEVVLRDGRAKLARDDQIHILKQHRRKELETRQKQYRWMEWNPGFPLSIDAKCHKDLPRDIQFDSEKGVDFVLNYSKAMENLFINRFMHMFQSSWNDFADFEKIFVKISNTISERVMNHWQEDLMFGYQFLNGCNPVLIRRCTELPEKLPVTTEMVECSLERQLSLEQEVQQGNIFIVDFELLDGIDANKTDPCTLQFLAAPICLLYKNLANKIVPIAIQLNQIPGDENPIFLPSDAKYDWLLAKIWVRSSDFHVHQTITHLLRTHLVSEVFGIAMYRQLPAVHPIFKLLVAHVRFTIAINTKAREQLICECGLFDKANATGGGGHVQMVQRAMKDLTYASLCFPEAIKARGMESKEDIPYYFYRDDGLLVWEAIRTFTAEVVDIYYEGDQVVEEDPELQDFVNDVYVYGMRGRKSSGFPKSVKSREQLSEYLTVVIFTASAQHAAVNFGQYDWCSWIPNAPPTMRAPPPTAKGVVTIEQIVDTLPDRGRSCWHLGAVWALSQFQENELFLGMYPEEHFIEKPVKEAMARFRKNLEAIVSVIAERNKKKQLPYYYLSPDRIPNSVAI
Method: The assay of this Example measures the ability of the compounds tested to inhibit 5-lipxygenase in human whole blood.
Blood is obtained in 50-100 ml quantities from male donors. White blood cell counts and differentials are made. Two ml of blood are placed in a 15 ml polypropylene test tube. Compounds are solubilized in dimethylsulfoxide and diluted 1:10 in 10% bovine serum albumin in phosphate buffered saline, pH 7.4 resulting in a final dimethylsulfoxide concentration of 0.1% in the blood. Then, compounds are added to the blood in a shaking water bath at 37° C. for 10 minutes prior to the addition of 30 μM calcium ionophore (A23187; Sigma). After ionophore administration, whole blood samples are mixed and incubated for 20 minutes at 37° C. in a shaking water bath. Incubation is terminated by placing samples in an ice bath and immediately adding ethylene glycol-bis-(β-aminoethyl ether)-N,N,N',N'-tetraacetic acid (10 mM). Samples are mixed and centrifuged at 1200×g for 15 minutes at 4° C. Preparation of samples for evaluation by RIA or ELISA is carried out by the following protocol. Plasma is removed from sample tubes, placed in 15 ml polypropylene test tubes containing 8 ml methanol, and then vortexed to precipitate protein. Samples are stored at -70° C. overnight. The next day, samples are centrifuged at 200×g for 15 minutes at 4° C. to pellet the precipitate. Samples are dried in a Savant speed vac concentrator, reconstituted to original volume with ice cold RIA or ELISA buffer, and stored at -70° C. until assayed. The assay for eicosanoids (LTB4, TxB2, and PGE2) is performed as described by the manufacturer of the [^3 H]-RIA kit or ELISA kit (LTB4 -Amersham, TxB2 and PGE2 - Caymen Chemical).
The total eicosanoid level in 2 ml of blood is calculated and reported as ng/10^6 neutrophils. Significance is determined by a one-way analysis of variance with least significant difference (LSD) comparisons to control (p≤0.05) and IC50 's (μM) are determined by regression analysis (Finney, 1978). Drug effects are expressed as percent change form control values.
Compounds tested in vitro are solubilized in dimethylsulfoxide and diluted 1:10 in 10% bovine serum albumin in phosphate buffer saline resulting in a final dimethylsulfoxide concentration of 0.1% in the blood.

[3] = read-out: % Inhibition of 5-LO (as 5-HETE)

| SMILES | inhibition at 10 µM (5-lipoxygenase [1]; [3]) | inhibition at 25 µM (5-lipoxygenase [2]; 25 μM, human whole blood) | % Inhibition of CO (as PGE2) (cyclooxygenase; 10 μM) | further results |
| --- | --- | --- | --- | --- |
| CC(C(=O)O)c1ccc2cc(OCc3ccc4ccccc4c3)ccc2c1 (stereo not drawn) [Example 6, α-Methyl-6-(2-naphthalenylmethoxy)-2-naphthaleneacetic acid] | 100% |  | -15% |  |
| C[C@@H](C(=O)O)c1ccc2cc(OCc3ccc4ccccc4n3)ccc2c1 [Example 8, R-(-)-α-Methyl-6-(2-quinolinylmethoxy)-2-naphthaleneacetic acid] |  |  |  | inhibition at 0.1 µM (5-lipoxygenase [1]; 0.1 μM, read-out: % Inhibition of 5-LO (as 5-HETE)): 33%; % Inhibition of CO (as PGE2) (cyclooxygenase; 0.1 μM): -7% |
| CC(C(=O)O)c1ccc2cc(OCc3csc(-c4ccccc4)n3)ccc2c1 (stereo not drawn) [Example 9, α-Methyl-6-[(2-phenyl-4-thiazolyl)methoxy]-2-naphthaleneacetic acid] | 86% |  | -11% |  |
| CC(C)=CCOc1ccc2cc(C(C)C(=O)O)ccc2c1 (stereo not drawn) [Example 14, α-Methyl-6-(3-methyl-2-butenoxy)-2-naphthaleneacetic acid] | 81% |  | -15% |  |
| CC(C(=O)O)c1ccc2cc(OCc3ccc4ccc(Cl)cc4n3)ccc2c1 (stereo not drawn) [Example 18, α-Methyl-6-[(7-chloro-2-quinolinyl)-methoxy]-2-naphthaleneacetic acid] |  |  |  | pIC50 (5-lipoxygenase [1]; read-out: IC50 (inhibition of 5-LO, as 5-HETE)): 4.94; pIC50 (cyclooxygenase): < 4.30 |
| CC(C)(C(=O)O)c1ccc2cc(OCc3nc4ccccc4s3)ccc2c1 [Example 34, α,α-Dimethyl-6-(2-benzothiazolylmethoxy)-2-naphthaleneacetic acid] |  | 13% |  |  |
| C[C@H](C(=O)O)c1ccc2cc(OCc3csc(-c4ccccc4)n3)ccc2c1 [Example 35, S-(+)-α-Methyl-6-[(2-phenyl-4-thiazolyl)-methoxy]-2-naphthaleneaceticacid] |  | 28% |  |  |
| CC(C)(NC(=O)NO)c1ccc2cc(OCc3nc4ccccc4s3)ccc2c1 [Example 37, N-[1-[6-(2-Benzothiazolylmethoxy)-2-naphthalenyl]-1-methyethyl]-N'-hydroxyurea] |  | 43% |  | pIC50 (5-lipoxygenase [2]; human whole blood): 4.29 |
| C[C@H](C(=O)N(C)O)c1ccc2cc(OCc3nc4ccccc4s3)ccc2c1 [Example 41A, S-(+)-N-Hydroxy-α,N-dimethyl-6-(2-benzothiazolylmethoxy)-2-naphthaleneacetamide sodium salt hydrate] |  |  |  | % Inhibition of LTB4 (5-lipoxygenase [2]; 25 μM, human whole blood, sodium salt hydrate): 89%; pIC50 (5-lipoxygenase [2]; human whole blood, sodium salt hydrate): 4.91 |
| CC(c1cc2ccccc2s1)N(O)C(N)=O (centres unmarked) [Example A-64077, reference compound] |  |  |  | inhibition at 5 µM (5-lipoxygenase [2]; read-out: % Inhibition of LTB4): 72% |
| CC(C)c1ccc2c(c1)c(SC(C)(C)C)c(CC(C)(C)C(=O)O)n2Cc1ccc(Cl)cc1 [L-663,536, reference compound] |  |  |  | inhibition at 3 µM (5-lipoxygenase [2]; 3 μM, human whole blood): 96% |

Second part, led by results:

| inhibition at 10 µM (5-lipoxygenase [1]; [3]) | inhibition at 25 µM (5-lipoxygenase [2]; 25 μM, human whole blood) | SMILES | % Inhibition of CO (as PGE2) (cyclooxygenase; 10 μM) | further results |
| --- | --- | --- | --- | --- |
| 90% |  | CC(C(=O)O)c1ccc2cc(OCc3nc4ccccc4s3)ccc2c1 (stereo not drawn) [Example 5, α-Methyl-6-(2-benzothiazolylmethoxy)-2-naphthaleneacetic acid] | -35% |  |
| 48% |  | CCCCCOc1ccc2cc(C(C)C(=O)O)ccc2c1 (stereo not drawn) [Example 12, α-Methyl-6-(pentyloxy)-2-naphthaleneacetic acid] | -13% |  |
| 82% |  | CC(C(=O)O)c1ccc2c(Br)c(OCc3ccc4ccccc4n3)ccc2c1 (stereo not drawn) [Example 19, α-Methyl-5-bromo-6-(2-quinolinylmethoxy)-2-naphthaleneacetic acid] | -21% |  |
| 89% |  | CC(C(=O)O)c1ccc2cc(OCC=Cc3ccccc3)ccc2c1 (stereo not drawn) [Example 20, α-Methyl-6-[(3-phenyl-2-propenyl)oxy]-2-naphthaleneacetic acid] | 14% |  |
| 95% |  | O=C(O)Cc1ccc2cc(OCc3ccc4ccccc4n3)ccc2c1 [Example 21, 6-(2-Ouinolinylmethoxy)-2-naphthaleneacetic Acid] |  | pIC50 (cyclooxygenase): < 3.60 |
|  | 54% | C[C@H](C(=O)O)c1ccc2cc(OCc3nc4ccccc4s3)ccc2c1 [Example 33, S-(+)-α-Methyl-6-(2-benzothiazolylmethoxy)-2-naphthaleneacetic acid] |  |  |
|  | 11% | C[C@H](C(=O)O)c1ccc2cc(OCc3ccccn3)ccc2c1 [Example 42, S-(+)-α-Methyl-6-(2-pyridinylmethoxy)-2-naphthaleneacetic acid one tenth hydrate] |  |  |
|  | 12% | C[C@H](C(=O)O)c1ccc2cc(OCc3nc4ccccc4n3C)ccc2c1 [Example 43, S-(α)α-Methyl-6-[(1-methyl-1H-benzimidazol-2-yl)-methoxy]-2-naphthaleneacetic acid] |  |  |
|  | 22% | C[C@H](C(=O)O)c1ccc2cc(OCc3nc4ccccc4o3)ccc2c1 [Example 46, S-(+)-α-methyl-6-(2-benzoxazolylmethoxy)-2-naphthaleneacetic acid] |  |  |
